# Counter-ions that a name gives are not always drawn.
# Experiment: decomposition and nitric oxide production at pH 7 and 25° C.
# Type: physicochemical
# Settings: for half-life of decomposition: for the carbethoxy compound based on loss of the 252-nm chromophore in the UV spectrum
# Procedure: The analysis of NO adducts, i.e., polymers containing the nitric oxide-releasing N2O2^− functional group, was done on a nitric oxide analyzer and was patterned after the procedure of Maragos et al., J. Med. Chem., 34, 3242-3247 (1991). A reactor vessel fitted with a septum was charged with a small aliquot of the polymer to be studied and the system was purged with helium for several minutes to remove traces of oxygen. […]
# To a solution of 510 mg (1.97 mmol) of 1-(N-acetyl-L-methionyl)piperazine in 1 ml of methanol was added 428 μl (1.97 mmol) of 25% sodium methoxide in methanol. The system was degassed and charged with 40 psi of nitric oxide. After exposure of the solution to NO for 120 h, the pressure was released and the solid product was collected by filtration, washed with ether, and dried to give 27 mg of 1-[4-(N-acetyl-L-methionyl)piperazin-l-yl]-1-oxo-2-hydroxydiazene, sodium salt, as a white solid: UV λmax (ε) 252 nm (12.0 mM^−1 cm^−1).
# A solution of 20 g (0.126 mol) of ethyl 1-piperazinecarboxylate in 60 ml of methanol was placed in a Parr bottle. The solution was treated with 27.4 ml (0.126 mol) of 25% sodium methoxide in methanol. The system was evacuated, charged with 40 psi of nitric oxide and kept at 25° C. for 48 h. The white crystalline product was collected by filtration and washed with cold methanol as well as with copious amounts of ether. The product was dried under vacuum to give a 14.5 g (48%) yield of 1-(4-carbethoxypiperazin-1-yl)-1-oxo-2-hydroxydiazene, sodium salt: mp 184-5° C.; UV (0.01 M NaOH) λmax (ε) 252 nm (10.4 mM^−1 cm^−1); NMR (D2O) δ 1.25 (t, 3 H), 3.11 (m, 2 H), 3.68 (m, 2 H), 4.15 (q, 2 H). Anal Calcd. for C6H13N4O4Na: C, 35.00%; H, 5.42%; N, 23.33%; Na, 9.58%. Found: C, 34.87%; H, 5.53%; N, 23.26%; Na, 9.69%. The half-life of this compound at pH 7 and 25° C. was 5 min. This measurement was based on the loss of the 252-nm chromophore in the ultraviolet spectrum.
half-life of decomposition,moles of NO produced per mole of test agent,SMILES
5 min,,"CCOC(=O)N1CCN([N+]([O-])=N[O-])CC1.[Na+] [1-(4-carbethoxypiperazin-1-yl)-1-oxo-2-hydroxydiazene, sodium salt]"
6.9 min,1.72 moles of NO per mole of test agent,"CSCC[C@H](NC(C)=O)C(=O)N1CCN([N+]([O-])=NO)CC1 [1-[4-(N-acetyl-L-methionyl)piperazin-l-yl]-1-oxo-2-hydroxydiazene, sodium salt]"

# Reference: patent US7425218B2, “Nitric oxide-releasing medical devices” (The United States of America as represented by the …, priority 1992, dated 2008)
